This passage reports cytotoxicity results from ChEMBL document CHEMBL3507680, “University of Dundee, Gates Library screen for HepG2 cell viability”.

The series is described as follows: Human HepG2 cell viability assay in 384 well format. The series is classed as toxicity, cell-based. More on the design: dose 125 nL, time 70.5 hour; cytotoxicity at 70.5 h: concentration not given beside the values. The note with it: HepG2 cells, read-out: Inhibition.
`COc1ccc(-c2noc([C@@H](C)NS(=O)(=O)CC(C)C)c2C(=O)O)cc1`: the cytotoxicity at 70.5 h is -10.7%.

For `Cc1ccccc1-c1noc(CN2CCOC(Cn3cccn3)C2)n1` (stereo not given), the cytotoxicity at 70.5 h is -10.3%.

As for `Cc1ccc2nc(C)cc(C(=O)N[C@H]3COC[C@@H]3N3CCOCC3)c2c1`, the cytotoxicity at 70.5 h was -6.73%.

`COc1cc(N2CCC3(CC2)CC(N2CCOCC2)C3)ncn1`: the cytotoxicity at 70.5 h was -16%.

Consider `Cc1oncc1C(=O)N1CCCc2c(C#N)nn(C)c2C1`, for which the cytotoxicity at 70.5 h was -7.62%.

On to `COCC(=O)N1CCc2c(CNS(C)(=O)=O)n[nH]c2C1`, for which the cytotoxicity at 70.5 h is -5.36%.

Take `CC/N=c1/c(NC(=O)NCCOC)c(O)oc2ccccc12`: the cytotoxicity at 70.5 h was 30.4%.

For `CCS(=O)(=O)N1C[C@H]2CC[C@](O)(c3ccc(C)cc3)[C@H]2C1`, the cytotoxicity at 70.5 h turned out to be 2.5%.

Consider `Cc1noc(C)c1CN1Cc2cn(C)nc2C(COCC2CC2)C1` (stereo not given), for which the cytotoxicity at 70.5 h worked out at 14.4%.

For `O=C(c1ccco1)N1C(CN2CCOCC2)[C@]2(O)CC[C@H]1CC2` (stereo not given in full), the cytotoxicity at 70.5 h is -6%.

As for `O=C1CCC(C(=O)Nc2ccc(=O)n(Cc3ccccc3Cl)c2)N1` (stereo not given), the cytotoxicity at 70.5 h was -4.13%.

With `O=C1CSc2ccccc2N1CC(=O)N1CCCCC1c1nccs1` (stereo not given), the cytotoxicity at 70.5 h is -8.8%.

Consider `CN(C)CC(=O)N1Cc2cc(-c3cc[nH]n3)ccc2C1c1cnco1` (stereo not given), for which the cytotoxicity at 70.5 h is -1.64%.

As to `CN(C)CCN(Cc1ccsc1)C(=O)C1=NNC(=O)CC1`, the cytotoxicity at 70.5 h is -9.01%.

As to `Cc1cnc(N2CCC3(CC2)CC(NC(=O)N(C)C)CO3)nc1` (stereo not given), the cytotoxicity at 70.5 h was -0.406%.

For `COc1ccc(CN2CC[C@H]3[C@H](CO[C@H]3CNC(=O)N(C)C)C2)cc1`, the cytotoxicity at 70.5 h is -0.91%.

On to `COCCn1ccc(=O)c(OCC(=O)Nc2ccc(OC)cc2)c1C`, for which the cytotoxicity at 70.5 h is -12%.

As to `CN(Cc1csc(-c2cccs2)n1)C(=O)CCn1ccc(=O)[nH]c1=O`, the cytotoxicity at 70.5 h is 10.9%.

On to `CC(C)OC[C@H]1CCC[C@]12CN(S(=O)(=O)c1cn(C)cn1)CCO2`, for which the cytotoxicity at 70.5 h is -4.1%.

Take `CCN1CCN(c2ccc(C(=O)NCc3cc(C)no3)cc2F)CC1`: the cytotoxicity at 70.5 h was -4.13%.

For `CS(=O)(=O)c1nccn1Cc1ccncc1`, the cytotoxicity at 70.5 h was -4.41%.

Turning to `COc1c[nH]c(C(=O)Nc2nc(C)cs2)cc1=O`, the cytotoxicity at 70.5 h is -5.81%.

As to `COCCN1C[C@H]2[C@@H](C1)N(C(=O)c1cccc(OC)c1)CC[C@H]2OC`, the cytotoxicity at 70.5 h is -2.65%.

In the case of `O=C1CCC(=O)N1Cc1ccc(C(=O)N2CCCC2c2cccs2)cc1` (stereo not given), the cytotoxicity at 70.5 h was -11.1%.

Consider `CCn1nc(C)c(NC(=O)CN(C)C(C)c2ccon2)c1C` (stereo not given), for which the cytotoxicity at 70.5 h turned out to be 3.79%.

As for `CC(NC(=O)N1CCN(c2ccccc2O)CC1)c1nncn1C` (stereo not given), the cytotoxicity at 70.5 h was determined as 1.59%.

Consider `Cc1c(NC(C)C(C)C)cccc1C(=O)NCc1nnc(C)n1C` (stereo not given), for which the cytotoxicity at 70.5 h stood at 8.29%.

Regarding `Cc1ccn2ncc(C(=O)N3CCCC(c4cc(C)[nH]n4)C3)c2n1` (stereo not given), the cytotoxicity at 70.5 h is -7.17%.

As for `Cc1ccc(-c2nc(CNCC3CN(C)CCO3)co2)c(C)c1` (stereo not given), the cytotoxicity at 70.5 h came to 5.24%.

Regarding `O=C(c1ccccn1)N1CCC2(CC1)C(=O)Nc1ccccc12`, the cytotoxicity at 70.5 h is -9.49%.

Take `Cc1nc(O)c2nnn(C[C@H]3CCCN3C(=O)c3ccccc3F)c2n1`: the cytotoxicity at 70.5 h was -0.74%.

As to `Cc1nnc(CN(C)CC(=O)N2CCCC(C(F)(F)F)C2)n1C` (stereo not given), the cytotoxicity at 70.5 h amounted to 16.8%.

Regarding `COc1cc(Cl)cc(CN2CCCC(N3CCOCC3)C2)c1OC` (stereo not given), the cytotoxicity at 70.5 h is -5.79%.

For `CC(C)c1nccn1C1CCCN(C(=O)c2cccc3c2OCO3)C1` (stereo not given), the cytotoxicity at 70.5 h came to 8.22%.

Consider `CCc1ncc(CN2CCN(CCOC)CC2)cn1`, for which the cytotoxicity at 70.5 h came out at 7.17%.

As for `O=C(NC1CCC1)C1CCC2(CN(C(=O)c3ccno3)C2)O1` (stereo not given), the cytotoxicity at 70.5 h was -14%.

Turning to `CCOc1ccc(CNCCCn2ccnc2)cc1Cl`, the cytotoxicity at 70.5 h amounted to 0.65%.

On to `CS(=O)(=O)CCNC(=O)NCCc1cc2ccccc2o1`, for which the cytotoxicity at 70.5 h is -4.01%.

`CCOc1ccc(CCCC(=O)N2CCC(c3nnn[nH]3)CC2)cc1C`: the cytotoxicity at 70.5 h was -11.9%.

Turning to `CCc1cnc(C)nc1N(C)CCCc1cnn(C)c1`, the cytotoxicity at 70.5 h is -12.1%.

Take `O=C(N1CCC(Oc2ccncc2)C1)C1(c2ccc(F)cc2)CC1` (stereo not given): the cytotoxicity at 70.5 h amounted to 5.93%.

With `O=C(CCn1ncc2ccccc21)N1CCCC(Cc2cccnc2)C1` (stereo not given), the cytotoxicity at 70.5 h is -5.11%.

As for `Cc1ccccc1Oc1ncccc1CNS(C)(=O)=O`, the cytotoxicity at 70.5 h came to 19.1%.

On to `Cc1ccc(C2(C(=O)NCCCn3cccn3)CCOCC2)cc1`, for which the cytotoxicity at 70.5 h is 14.4%.

As for `COCCNC(=O)N1CCC(NC(C)C)CC1`, the cytotoxicity at 70.5 h worked out at 5.14%.

As to `O=C(Cc1c(F)cccc1F)N1CCN(CC(=O)N2CCCC2)CC1`, the cytotoxicity at 70.5 h was -5.05%.

On to `OC1(c2cn(C3CCN(C4CCSC4)CC3)nn2)CCCC1` (stereo not given), for which the cytotoxicity at 70.5 h is -4.72%.

In the case of `CC(NC(=O)CCc1nc(-c2nnc[nH]2)no1)c1ccc(F)cc1F` (stereo not given), the cytotoxicity at 70.5 h was 4.47%.

On to `Cc1ccc(-c2cc(C(=O)NCCC3=CCCCC3)[nH]n2)o1`, for which the cytotoxicity at 70.5 h was -10.6%.

On to `CC(C)NC(=O)Nc1ccc(CNCc2ccc(OC(F)F)cc2)cc1`, for which the cytotoxicity at 70.5 h stood at 13.8%.

Turning to `CCCc1nnnn1CC(=O)NCc1cccc(C)c1`, the cytotoxicity at 70.5 h was -3.35%.

For the compound `Cn1cc(CN2CC[C@H]3OCC[C@@H](C(=O)NCc4ccco4)[C@@H]3C2)cn1`, the cytotoxicity at 70.5 h is -8%.

On to `Cc1nc(N2CCN(C(=O)c3cccs3)CC2)cc(-n2cccc2)n1`, for which the cytotoxicity at 70.5 h is 1.27%.

As to `Cn1nc2c(cc1=O)CN(c1nc3ccccc3s1)CC2`, the cytotoxicity at 70.5 h came out at 4.78%.

With `COCCN1CCO[C@H]2CN(C(=O)c3ccncc3F)C[C@H]21`, the cytotoxicity at 70.5 h is -9.68%.

For the compound `Cc1ccc(-c2nc(CN3CCOC(Cn4cncn4)C3)cs2)o1` (stereo not given), the cytotoxicity at 70.5 h is -6.85%.

As to `COc1cccc(CN2CCCC3(CCN(C(=O)c4ccco4)C3)C2)c1` (stereo not given), the cytotoxicity at 70.5 h is -8.94%.

Take `COc1ccc(CCNC(=O)C2CC2)c(Cl)c1`: the cytotoxicity at 70.5 h is -1.42%.

`CCS(=O)(=O)N1CCO[C@H]2[C@H](OCC3CCCC3)CC[C@@H]21`: the cytotoxicity at 70.5 h was -13.9%.

Regarding `Cc1ccc(C(=O)Cc2c(Cl)nc3n(C)c(=O)n(C)c(=O)n23)cc1`, the cytotoxicity at 70.5 h is -9.41%.

In the case of `Nc1ccnc(N2CCC(c3nccn3CC3CC3)CC2)n1`, the cytotoxicity at 70.5 h came to 17.6%.

Take `N#CC1(C(=O)N2CCOC(c3ccc(F)cc3)C2)CCCC1` (stereo not given): the cytotoxicity at 70.5 h was -15.9%.

On to `NCCC(=O)NCC1(O)CCCN(c2ccnc3cccnc23)C1` (stereo not given), for which the cytotoxicity at 70.5 h is -3.53%.

For `CC(C)c1cc(C(=O)N2CCCC2c2nc(-c3ccccc3)no2)[nH]n1` (stereo not given), the cytotoxicity at 70.5 h is -0.676%.

Turning to `CC(=O)N1CCC(CCNC(C)Cc2ccc(F)cc2)CC1` (stereo not given), the cytotoxicity at 70.5 h was -13.1%.

Regarding `Cn1ccnc1COc1ccc(CSc2nnnn2C2CC2)cc1`, the cytotoxicity at 70.5 h came to 6.53%.

On to `COCC(=O)N1CCN(Cc2cc(F)cc(Br)c2)CC1`, for which the cytotoxicity at 70.5 h is -6.59%.

Turning to `CN(Cc1nc(-c2cccs2)no1)Cc1nc2c(s1)CCCC2`, the cytotoxicity at 70.5 h is -3.38%.

For `Cc1ccc(OCCC(=O)N2CCN(c3cnccn3)CC2)cc1C`, the cytotoxicity at 70.5 h was -4.94%.

Consider `Cc1csc(NC(=O)CN(C)CCOc2cccc(F)c2)n1`, for which the cytotoxicity at 70.5 h came out at 15.2%.
